Data as given in patent US20160053277A1, “Compositions Having Dicamba Decarboxylase Activity and Methods of Use” (PIONEER HI-BRED INTERNATIONAL, INC., priority 2013, published 2016).
Entries after “also recorded” stand apart in the source; their conditions may differ.

Columns and labels:
[1] = system: Arabidopsis ecotype Columbia (Col-0); assay: Arabidopsis root growth inhibition assay; conditions: 6 days
Description: Phytotoxicity of other major dicamba decarboxylated products was evaluated using Arabidopsis root growth inhibition assay. 4-chloro-3-methoxy phenol was purchased from Biogene Organics, Inc. (catalog number U06-642-79). 2,5-dichloro phenol was purchased from Sigma-Aldrich (catalog number D70007). Briefly, seeds of Arabidopsis ecotype Columbia (Col-0) were surface sterilized with 70% (v/v) ethanol for 5 minutes and 10% (v/v) bleach for 15 minutes. After being washed three times with distilled water, the seeds were germinated on 1× Murashige and Skoog (MS) medium with a pH of 5.7, 3% (w/v) sucrose, and 0.8% (w/v) agar. After incubation for 3.5 days, the seedlings were transferred to 1× MS medium containing B5 vitamin, 3% (w/v) sucrose, 1.2% (w/v) agar, and filter sterilized compounds was added to the media at 60° C. The concentrations of compounds including dicamba were 0 μM, 1.0 μM, and 10 μM. The seedlings were placed vertically, and the temperature maintained at 23° C. to allow root growth along the surface of the agar, with a photoperiod of 16 h of light and 8 h of dark.
After 6 days on media, root growth was evaluated. In wild type Arabidopsis, root growth inhibition is expected from auxin herbicide treatment.

Soybean seeds = assay: Soybean germination test on media with dicamba or decarboxylation product; type: in vivo; conditions: FIG. 2, concentration not stated

soybean germination (Soybean seeds)	SMILES	Arabidopsis root growth ([1]; 1 uM in medium)	Arabidopsis root growth ([1]; 10 uM in medium)
–	Oc1cc(Cl)ccc1Cl [2,5-dichloro phenol]	not affected; also recorded: did not have any effect	not affected; also recorded: did not have any effect
not affected	COc1cc(Cl)ccc1Cl [2,5-DCA, 2,5-dichloro anisole]	–	–
